# Assay results taken from ChEMBL document CHEMBL1139192, “Novel bis(indolyl)maleimide pyridinophanes that are potent, selective inhibitors of glycogen synthase kinase-3” (Bioorg Med Chem Lett, 2007).
# Columns and labels:
# [1] = target: Serine/threonine-protein kinase N2 (Homo sapiens) (UniProt Q16513); test: Residual activity of human PRK2 at 1 uM relative to control
# [2] = target: T1, Serine/threonine-protein kinase D1 (Homo sapiens) (UniProt Q15139); test: Residual activity of human PKCmu at 1 uM relative to control
# T1 sequence (whole entry): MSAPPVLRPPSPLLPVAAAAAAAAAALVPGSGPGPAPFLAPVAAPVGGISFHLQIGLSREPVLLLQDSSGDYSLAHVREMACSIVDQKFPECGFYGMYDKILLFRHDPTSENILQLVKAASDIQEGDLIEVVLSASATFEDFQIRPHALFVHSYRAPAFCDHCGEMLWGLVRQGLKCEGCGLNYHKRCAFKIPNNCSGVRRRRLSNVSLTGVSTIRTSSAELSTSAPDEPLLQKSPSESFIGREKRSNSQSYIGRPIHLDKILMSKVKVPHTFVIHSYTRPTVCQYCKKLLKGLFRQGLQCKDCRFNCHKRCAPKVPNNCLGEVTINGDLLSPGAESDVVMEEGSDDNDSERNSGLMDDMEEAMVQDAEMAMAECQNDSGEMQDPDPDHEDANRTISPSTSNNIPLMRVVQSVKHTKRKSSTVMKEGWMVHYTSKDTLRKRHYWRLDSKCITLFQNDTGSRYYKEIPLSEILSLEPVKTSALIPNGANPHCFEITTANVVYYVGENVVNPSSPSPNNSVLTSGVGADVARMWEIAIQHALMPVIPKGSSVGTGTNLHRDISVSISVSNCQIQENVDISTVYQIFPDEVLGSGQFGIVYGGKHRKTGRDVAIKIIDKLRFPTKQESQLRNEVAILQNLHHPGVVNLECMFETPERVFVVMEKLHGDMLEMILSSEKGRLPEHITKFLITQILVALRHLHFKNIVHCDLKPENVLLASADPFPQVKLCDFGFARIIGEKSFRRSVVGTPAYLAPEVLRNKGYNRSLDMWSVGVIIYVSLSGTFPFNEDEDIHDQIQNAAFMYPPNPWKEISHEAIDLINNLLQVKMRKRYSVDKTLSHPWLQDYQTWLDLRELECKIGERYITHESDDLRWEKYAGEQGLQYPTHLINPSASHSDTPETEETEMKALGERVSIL
# [3] = target: T2, Inhibitor of nuclear factor kappa-B kinase subunit beta (Homo sapiens) (UniProt O14920); test: Residual activity of human IKK-beta at 1 uM relative to control
# T2 sequence (whole entry): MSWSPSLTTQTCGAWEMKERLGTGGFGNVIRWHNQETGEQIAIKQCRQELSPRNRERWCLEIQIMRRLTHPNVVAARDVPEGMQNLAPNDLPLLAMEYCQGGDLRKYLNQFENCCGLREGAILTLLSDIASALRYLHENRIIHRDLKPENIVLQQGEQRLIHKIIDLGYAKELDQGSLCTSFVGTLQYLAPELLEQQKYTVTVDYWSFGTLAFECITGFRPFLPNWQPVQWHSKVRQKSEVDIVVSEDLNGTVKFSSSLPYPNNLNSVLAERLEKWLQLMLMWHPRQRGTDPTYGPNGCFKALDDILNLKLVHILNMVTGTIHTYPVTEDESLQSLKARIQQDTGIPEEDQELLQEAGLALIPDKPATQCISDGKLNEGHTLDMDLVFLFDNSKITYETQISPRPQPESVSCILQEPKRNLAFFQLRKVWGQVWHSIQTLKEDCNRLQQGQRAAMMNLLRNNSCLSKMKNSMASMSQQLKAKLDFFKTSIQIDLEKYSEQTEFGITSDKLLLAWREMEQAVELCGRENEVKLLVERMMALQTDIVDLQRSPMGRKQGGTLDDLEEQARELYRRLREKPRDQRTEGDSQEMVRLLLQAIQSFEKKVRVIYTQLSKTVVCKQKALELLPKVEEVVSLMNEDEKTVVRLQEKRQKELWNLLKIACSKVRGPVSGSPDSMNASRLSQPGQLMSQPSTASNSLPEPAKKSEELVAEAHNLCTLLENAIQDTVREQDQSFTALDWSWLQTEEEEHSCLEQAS
# [4] = target: Protein kinase C gamma type (Homo sapiens) (UniProt P05129); test: Residual activity of human PKCgamma at 1 uM relative to control
# [5] = target: Tyrosine-protein kinase ZAP-70 (Homo sapiens) (UniProt P43403); test: Residual activity of human ZAP70 kinase at 1 uM relative to control
# [6] = target: Tyrosine-protein kinase BTK (Homo sapiens) (UniProt Q06187); test: Inhibition of human BTK at 1 uM relative to control; values are per cent of control
# [7] = target: Hepatocyte growth factor receptor (Homo sapiens) (UniProt P08581); test: Inhibition of human Met at 1 uM relative to control; values are per cent of control
# Homo sapiens = species on record: Homo sapiens; test: Inhibition of human PKA at 1 uM relative to control; values are per cent of control
# [8] = target: Tyrosine-protein kinase SYK (Homo sapiens) (UniProt P43405); test: Inhibition of human Syk at 1 uM relative to control; values are per cent of control
# Mus musculus = species on record: Mus musculus; test: Inhibition of mouse MAPK2 at 1 uM relative to control; values are per cent of control
# [9] = target: T3, Protein kinase C iota type (Homo sapiens) (UniProt P41743); test: Inhibition of human PKCiota at 1 uM relative to control; values are per cent of control
# T3 sequence (whole entry): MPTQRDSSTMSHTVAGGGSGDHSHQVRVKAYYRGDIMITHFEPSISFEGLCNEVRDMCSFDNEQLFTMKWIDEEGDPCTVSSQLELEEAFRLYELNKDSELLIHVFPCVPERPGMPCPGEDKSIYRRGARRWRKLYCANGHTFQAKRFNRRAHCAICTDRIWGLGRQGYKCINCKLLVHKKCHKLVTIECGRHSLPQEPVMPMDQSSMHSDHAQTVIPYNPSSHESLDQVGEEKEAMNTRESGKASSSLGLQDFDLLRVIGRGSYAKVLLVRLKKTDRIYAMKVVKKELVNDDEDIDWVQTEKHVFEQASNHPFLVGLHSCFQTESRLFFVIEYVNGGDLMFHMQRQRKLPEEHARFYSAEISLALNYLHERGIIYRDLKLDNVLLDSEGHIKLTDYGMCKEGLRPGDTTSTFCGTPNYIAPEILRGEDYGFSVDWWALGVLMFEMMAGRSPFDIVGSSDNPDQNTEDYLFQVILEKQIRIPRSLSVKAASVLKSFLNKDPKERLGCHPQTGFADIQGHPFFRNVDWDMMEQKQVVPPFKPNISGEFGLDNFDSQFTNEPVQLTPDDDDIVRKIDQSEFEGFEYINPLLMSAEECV
# Chain of Tyrosine-protein kinase BTK (Homo sapiens) (Q06187 whole entry): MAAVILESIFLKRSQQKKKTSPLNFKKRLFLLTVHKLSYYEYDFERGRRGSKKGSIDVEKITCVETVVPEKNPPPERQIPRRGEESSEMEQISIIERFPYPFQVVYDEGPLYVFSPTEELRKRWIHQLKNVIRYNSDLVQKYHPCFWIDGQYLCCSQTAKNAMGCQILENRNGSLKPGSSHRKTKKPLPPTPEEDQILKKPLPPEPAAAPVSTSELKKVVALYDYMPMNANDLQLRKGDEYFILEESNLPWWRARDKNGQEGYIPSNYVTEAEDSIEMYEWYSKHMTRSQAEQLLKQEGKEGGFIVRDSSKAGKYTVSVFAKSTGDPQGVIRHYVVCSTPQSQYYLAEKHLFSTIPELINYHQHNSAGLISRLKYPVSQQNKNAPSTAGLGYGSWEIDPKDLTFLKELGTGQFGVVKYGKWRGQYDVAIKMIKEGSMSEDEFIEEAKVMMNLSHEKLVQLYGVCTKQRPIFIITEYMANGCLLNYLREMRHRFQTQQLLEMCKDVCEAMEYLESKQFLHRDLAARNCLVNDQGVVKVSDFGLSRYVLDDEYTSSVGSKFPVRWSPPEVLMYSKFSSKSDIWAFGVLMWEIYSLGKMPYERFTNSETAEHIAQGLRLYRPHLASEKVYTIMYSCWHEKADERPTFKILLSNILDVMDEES
# Chain of Hepatocyte growth factor receptor (Homo sapiens) (P08581 whole entry): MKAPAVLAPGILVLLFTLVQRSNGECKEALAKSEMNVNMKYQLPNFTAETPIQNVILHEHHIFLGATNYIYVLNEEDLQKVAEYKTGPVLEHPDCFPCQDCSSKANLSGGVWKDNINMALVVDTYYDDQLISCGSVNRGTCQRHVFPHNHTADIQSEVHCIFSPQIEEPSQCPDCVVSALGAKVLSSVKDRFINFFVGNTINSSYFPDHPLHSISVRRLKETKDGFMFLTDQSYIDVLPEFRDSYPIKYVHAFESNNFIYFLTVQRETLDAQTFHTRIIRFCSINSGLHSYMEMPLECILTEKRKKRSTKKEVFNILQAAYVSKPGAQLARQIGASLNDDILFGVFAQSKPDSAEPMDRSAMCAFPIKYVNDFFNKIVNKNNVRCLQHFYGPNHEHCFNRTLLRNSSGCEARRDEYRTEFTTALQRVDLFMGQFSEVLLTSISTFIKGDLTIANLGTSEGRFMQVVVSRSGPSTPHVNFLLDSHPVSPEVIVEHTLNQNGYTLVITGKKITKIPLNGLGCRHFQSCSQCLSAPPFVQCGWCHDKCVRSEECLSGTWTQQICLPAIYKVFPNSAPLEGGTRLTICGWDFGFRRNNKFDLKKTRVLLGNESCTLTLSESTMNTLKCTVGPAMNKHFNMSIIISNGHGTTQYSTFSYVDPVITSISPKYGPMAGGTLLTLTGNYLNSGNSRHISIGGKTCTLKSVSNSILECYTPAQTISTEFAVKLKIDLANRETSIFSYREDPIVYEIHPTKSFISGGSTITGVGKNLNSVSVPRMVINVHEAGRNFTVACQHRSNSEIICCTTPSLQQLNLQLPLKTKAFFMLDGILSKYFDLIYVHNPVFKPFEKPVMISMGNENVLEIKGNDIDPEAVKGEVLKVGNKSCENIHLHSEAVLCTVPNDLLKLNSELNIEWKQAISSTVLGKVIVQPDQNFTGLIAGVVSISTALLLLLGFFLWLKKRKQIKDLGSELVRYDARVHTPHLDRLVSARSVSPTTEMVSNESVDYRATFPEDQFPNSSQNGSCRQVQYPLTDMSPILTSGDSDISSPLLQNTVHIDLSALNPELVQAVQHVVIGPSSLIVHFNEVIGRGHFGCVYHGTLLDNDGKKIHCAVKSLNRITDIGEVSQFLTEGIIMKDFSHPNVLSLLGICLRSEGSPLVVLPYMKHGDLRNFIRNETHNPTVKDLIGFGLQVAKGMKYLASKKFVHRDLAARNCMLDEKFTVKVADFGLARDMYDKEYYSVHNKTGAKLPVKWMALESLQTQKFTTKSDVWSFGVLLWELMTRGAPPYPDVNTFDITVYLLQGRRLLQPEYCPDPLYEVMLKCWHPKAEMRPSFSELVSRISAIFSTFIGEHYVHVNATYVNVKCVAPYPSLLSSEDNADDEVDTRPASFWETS
# Chain of Tyrosine-protein kinase ZAP-70 (Homo sapiens) (P43403 whole entry, looked up): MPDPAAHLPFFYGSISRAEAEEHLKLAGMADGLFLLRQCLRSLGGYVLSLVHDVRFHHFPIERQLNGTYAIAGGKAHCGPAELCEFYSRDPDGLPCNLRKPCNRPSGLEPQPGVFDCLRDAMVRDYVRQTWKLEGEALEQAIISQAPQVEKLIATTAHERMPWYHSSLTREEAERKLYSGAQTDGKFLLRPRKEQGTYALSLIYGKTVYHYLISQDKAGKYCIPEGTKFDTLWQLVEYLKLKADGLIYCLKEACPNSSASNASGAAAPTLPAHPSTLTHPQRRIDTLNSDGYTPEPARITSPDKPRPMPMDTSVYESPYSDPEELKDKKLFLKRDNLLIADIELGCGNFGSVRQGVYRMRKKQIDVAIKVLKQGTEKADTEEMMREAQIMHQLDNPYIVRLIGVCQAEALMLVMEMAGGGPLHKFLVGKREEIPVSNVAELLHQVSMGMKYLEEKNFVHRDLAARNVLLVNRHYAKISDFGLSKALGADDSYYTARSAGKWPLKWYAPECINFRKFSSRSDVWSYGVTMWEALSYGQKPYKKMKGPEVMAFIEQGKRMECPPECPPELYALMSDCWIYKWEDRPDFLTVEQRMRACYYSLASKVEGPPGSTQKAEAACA
# Chain of Serine/threonine-protein kinase N2 (Homo sapiens) (Q16513 whole entry, looked up): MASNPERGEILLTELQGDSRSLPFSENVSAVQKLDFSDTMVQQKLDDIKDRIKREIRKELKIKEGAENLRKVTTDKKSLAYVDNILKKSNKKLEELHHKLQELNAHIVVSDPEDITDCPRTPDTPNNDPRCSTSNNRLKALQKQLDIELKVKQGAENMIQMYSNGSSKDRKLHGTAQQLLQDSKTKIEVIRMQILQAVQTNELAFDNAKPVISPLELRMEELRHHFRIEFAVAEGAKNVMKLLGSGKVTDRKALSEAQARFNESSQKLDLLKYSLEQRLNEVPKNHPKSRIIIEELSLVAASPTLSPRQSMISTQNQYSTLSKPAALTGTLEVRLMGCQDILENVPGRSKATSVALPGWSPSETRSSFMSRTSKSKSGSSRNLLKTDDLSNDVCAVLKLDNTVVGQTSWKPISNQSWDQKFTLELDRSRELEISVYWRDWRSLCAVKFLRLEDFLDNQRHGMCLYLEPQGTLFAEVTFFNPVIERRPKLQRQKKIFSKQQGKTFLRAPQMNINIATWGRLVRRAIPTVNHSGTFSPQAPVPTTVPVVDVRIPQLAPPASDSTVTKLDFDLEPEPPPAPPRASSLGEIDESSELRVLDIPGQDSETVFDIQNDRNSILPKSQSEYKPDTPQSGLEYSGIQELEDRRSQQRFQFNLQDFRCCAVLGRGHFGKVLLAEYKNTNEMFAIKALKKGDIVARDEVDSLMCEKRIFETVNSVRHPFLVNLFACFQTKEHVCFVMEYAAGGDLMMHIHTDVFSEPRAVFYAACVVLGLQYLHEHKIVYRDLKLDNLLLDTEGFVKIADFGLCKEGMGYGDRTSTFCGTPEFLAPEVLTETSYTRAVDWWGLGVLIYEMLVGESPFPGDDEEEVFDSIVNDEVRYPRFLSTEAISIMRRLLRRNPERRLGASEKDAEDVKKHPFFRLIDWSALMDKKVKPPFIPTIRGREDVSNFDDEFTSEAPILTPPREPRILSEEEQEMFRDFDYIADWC
residual activity [1] [%],residual activity [2] [%],residual activity [3] [%],residual activity [4] [%],residual activity [5] [%],residual activity [6] [%],residual activity [7] [%],residual activity (Homo sapiens) [%],residual activity [8] [%],residual activity (Mus musculus) [%],residual activity [9] [%],SMILES
126,113,130,102,121,104,132,102,109,99,97,O=C1NC(=O)C2=C1c1cn(c3ccccc13)CCCc1ccc(c(N3CCCC3)n1)CCCn1cc2c2ccccc21
113,118,124,107,103,106,132,95,101,95,109,CN(C)c1cc2cc(n1)CCCn1cc(c3ccccc31)C1=C(C(=O)NC1=O)c1cn(c3ccccc13)CCC2
110,118,125,99,115,106,129,104,105,103,102,O=C1NC(=O)C2=C1c1cn(c3ccccc13)CCCc1cc(nc(N3CCCC3)c1)CCCn1cc2c2ccccc21
106,110,128,91,113,105,121,90,86,95,85,CN(C)c1nc2ccc1CCCn1cc(c3ccccc31)C1=C(C(=O)NC1=O)c1cn(c3ccccc13)CC2
